Consider 10 compounds from patent US10800752B2, “Substituted naphtho[2,3-b]furans as water-soluble prodrugs for preventing and/or treating cancer” (BOSTON BIOMEDICAL, INC., priority 2015, dated 2020).

Structures can show the parent of a compound that is named as a salt.

Data set [1] can be described thus: Evaluation of a conversion rate to 2-acetylnaphtho[2,3-b]furan-4,9-dione in CD1 mouse plasma. It counts as in vitro ADME. The note with it: 1 umol/L. The procedure: For test compounds, the decrease rate of the test compounds and the conversion rate thereof to 2-acetylnaphtho[2,3-b]furan-4,9-dione in human plasma, CD1 mouse plasma, and pH 7.4 phosphate buffer solution were measured.
Test compounds were incubated at the concentration of 1 umol/L in human plasma (cat. no. 12250210, COSMO BIO), CD1 mouse plasma (cat. no. AP3054, KAC), and phosphate buffer solution at 37° C., and removed at predetermined times (0, 5, 10, 30, 60, and 120 minutes). After protein-removing treatment was performed, they are analyzed with LC-MS. It should be noted that the protein-removing treatment used acetonitrile containing: 10% volume of 1 mol/L hydrochloric acid; 1% volume of 46% citric acid; and phenytoin as an internal standard.
The measurement condition of LC-MS is as described below. LC-MS condition column: Kinetex 2.6 u PFP 100 A 50×2.1 mm Column temperature: 40° C.
Mobile phase: A: 0.1% formic acid-containing water
• B: 0.1% formic acid-containing acetonitrile A/B(min): 95/5(0)→5/95(3)→5/95(4)→95/5(4.1)→95/5(6) Flow rate: 0.4 mL/min Detection: ESI (positive mode) Injection volume: 10 uL
Measurement values are calculated from the peak area ratio in LC-MS between an internal standard material, phenytoin and an active form, 2-acetylnaphtho[2,3-b]furan-4,9-dione, and are expressed in %.
In the same way as Example 6, the incubation time was set as 120 minutes later, and the conversion rate of each of various test compounds to 2-acetylnaphtho[2,3-b]furan-4,9-dione in human plasma, CD1 mouse plasma, and pH 7.4 phosphate buffer solution was measured. A series of the present compounds were confirmed to be converted to 2-acetylnaphtho[2,3-b]furan-4,9-dione in pH 7.4 phosphate buffer solution in addition to human plasma and CD1 mouse plasma. Therefore, a series of the test compounds of the present invention were confirmed to be converted to the activated form via a route other than an enzymatic conversion.

A short description of data set [2]: Evaluation of a conversion rate to 2-acetylnaphtho[2,3-b]furan-4,9-dione in pH 7.4 phosphate buffer solution. It counts as physicochemical. Conditions: Phosphate buffer solution (pH 7.4), 1 umol/L, 37° C., incubation time 120 min. Put shortly:
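Compounds at 1 umol/L were incubated at 37° C in human plasma, CD1 mouse plasma or pH 7.4 phosphate buffer, sampled up to 120 minutes, acid/acetonitrile-deproteinised and analysed by LC-MS (ESI positive). Conversion (%) derived from the peak area ratio of the active form to phenytoin internal standard.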

A further data set in a line: Solubility test. The note with it: for solubility at 24 hours: glycine buffer solution, pH 2, aqueous buffer, thermodynamic from solid; for Solubility in pH 2.0 buffer solution: 50 mmol/L glycine buffer solution (pH 2.0), room temperature, 24 hours shaking.
A short description of data set [3]: Evaluation of a conversion rate to 2-acetylnaphtho[2,3-b]furan-4,9-dione in human plasma. The data set is classed as in vitro ADME. The note with it: 1 umol/L. Put shortly:
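Compounds at 1 umol/L incubated at 37° C in human plasma, CD1 mouse plasma or pH 7.4 phosphate buffer, sampled up to 120 minutes. After acidified acetonitrile protein removal, parent loss and conversion to 2-acetylnaphtho[2,3-b]furan-4,9-dione measured by LC-MS (ESI positive).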

The next data set is described as follows: Solution stability test. The data set is classed as physicochemical. Conditions: for % Residual ratio: 25 umol/L. The procedure: For Example 6, Example 11, and Example 22, the stability in each pH was measured. Test compounds at a concentration of 25 umol/L in respective buffer solutions prepared at pH 2.0, 3.0, 5.0, 7.4, and 9.0 were allowed to stand at 25° C. After 0, 3, 6, 9, 12, and 24 hours, they were measured with HPLC.
The buffer solutions used at respective pHs are as described below. pH 2.0: 50 mmol/L glycine buffer solution pH 3.0: 50 mmol/L citrate buffer solution pH 5.0: 50 mmol/L citrate buffer solution pH 7.4: 50 mmol/L phosphate buffer solution pH 9.0: 50 mmol/L glycine buffer solution
The measurement condition of HPLC is as described below.
Column temperature: 40° C.
Mobile phase: A: 0.1% trifluoroacetic acid-containing water

Data set [4] is classed as in vivo, CD1 (ICR) mice. The note with it: orally administered to mice. The source says: It was then centrifuged to obtain plasma.
A short description of data set [5]: Pharmacokinetics test, intravenous administration. Conditions: intravenously administered to mice.
[6] abbreviates: CD1 mouse plasma, 37° C., incubation time 120 min.
The mark [7] stands for this setting: Human plasma, 37° C., incubation time 120 min.

Method for Solubility test: A water-soluble prodrug was added into 50 mmol/L glycine buffer solution (pH 2.0). After shaking at room temperature for 24 hours, the mixture was filtered through a membrane filter, and then the filtrate was measured with HPLC.
The measurement condition of HPLC is as described below. HPLC condition column: Acquity UPLC BEH C18, 1.7 um, 50×2.1 mm

`CC(=O)c1cc2c(OC(=O)OCCC[C@H](N)C(=O)O)c3ccccc3c(OC(=O)OCCC[C@H](N)C(=O)O)c2o1` [Example 22]: the “% Measurement value (conversion rate to 2-acetylnaphtho[2,3-b]furan-4,9-dione)” value (“% Measurement value” below) in data set [1] (CD1, mouse, 120 min) is recorded as 56%; in data set [2] it was 22%; in data set [3] (human, 120 min), 37%. In the data set “Solubility test”, this compound showed a solubility at 24 hours of over 5000 µg/mL. Also, the “stability in solution (in words)” value is “sufficient stability” in “Solution stability test” (pH 2.0, 25° C.) and “sufficient stability” in “Solution stability test” (pH 3.0, 25° C.). In addition, the “% Residual ratio” value in the data set “Solution stability test” (pH 2.0, 25° C., 0 hr) came to 100%; in “Solution stability test” (pH 2.0, 25° C., 3 hr), 97.0%; in the data set “Solution stability test” (pH 2.0, 25° C., 6 hr), 96.3%; in “Solution stability test” (pH 2.0, 25° C., 9 hr) it was 97.8%; in the data set “Solution stability test” (pH 2.0, 25° C., 12 hr), 97.1%; in “Solution stability test” (pH 2.0, 25° C., 24 hr) it was 91.8%. Moreover, the “% Residual ratio” value came out at 100% in “Solution stability test” (pH 3.0, 25° C., 0 hr); 98.6% in “Solution stability test” (pH 3.0, 25° C., 3 hr); 97.8% in the data set “Solution stability test” (pH 3.0, 25° C., 6 hr); 96.9% in “Solution stability test” (pH 3.0, 25° C., 9 hr); 96.0% in “Solution stability test” (pH 3.0, 25° C., 12 hr); 92.6% in “Solution stability test” (pH 3.0, 25° C., 24 hr). Further, the “% Residual ratio” value in the data set “Solution stability test” (pH 5.0, 25° C., 0 hr) is 100%; in the data set “Solution stability test” (pH 5.0, 25° C., 3 hr) it was 81.2%; in the data set “Solution stability test” (pH 5.0, 25° C., 6 hr), 69.4%; in “Solution stability test” (pH 5.0, 25° C., 9 hr) it was 58.8%; in “Solution stability test” (pH 5.0, 25° C., 12 hr) it was 49.7%; in the data set “Solution stability test” (pH 5.0, 25° C., 24 hr), 24.5%. For the same compound, the “% Residual ratio” value in the data set “Solution stability test” (pH 7.4, 25° C., 0 hr) was 100%; in the data set “Solution stability test” (pH 7.4, 25° C., 3 hr) it was 0%; in the data set “Solution stability test” (pH 7.4, 25° C., 6 hr) it was 0%; in the data set “Solution stability test” (pH 7.4, 25° C., 9 hr), 0%; in the data set “Solution stability test” (pH 7.4, 25° C., 12 hr), 0%; in “Solution stability test” (pH 7.4, 25° C., 24 hr), 0%. The “% Residual ratio” value in “Solution stability test” (pH 9.0, 25° C., 0 hr) was 100%; in the data set “Solution stability test” (pH 9.0, 25° C., 3 hr), 0%; in “Solution stability test” (pH 9.0, 25° C., 6 hr) it was 0%; in the data set “Solution stability test” (pH 9.0, 25° C., 9 hr) it was 0%; in the data set “Solution stability test” (pH 9.0, 25° C., 12 hr), 0%; in “Solution stability test” (pH 9.0, 25° C., 24 hr), 0%.

As for `CC(=O)c1cc2c(OC(=O)NCCNCCC(=O)O)c3ccccc3c(OC(=O)NCCNCCC(=O)O)c2o1` [Example 5, 3,3′-((((((2-Acetylnaphtho[2,3-b]furan-4,9-diyl)bis(oxy))bis(carbonyl))bis-(azanediyl))bis(ethane-2,1-diyl))bis(azanediyl))dipropionic acid dihydrochloride], in data set [4], the “concentration of 2-acetylnaphtho[2,3-b]furan-4,9-dione (Activated form 1) observed (in words)” value is “high concentration”. Further, the “% Measurement value” value in data set [2] (dihydrochloride) is given as 70%. The “production of 2-acetylnaphtho[2,3-b]furan-4,9-dione (Activated form 1) (in words)” value in data set [5] is “rapidly produced”.

`CC(=O)c1cc2c(OC(=O)OCCCCNCC(=O)O)c3ccccc3c(OC(=O)OCCCCNCC(=O)O)c2o1` [Example 23, 2,2′-((((((2-Acetylnaphtho[2,3-b]furan-4,9-diyl)bis(oxy)bis(carbonyl))bis(oxy))bis(butane-4,1-diyl))bis(azanediyl)diacetic acid dihydrochloride] returned a solubility at 24 hours in “Solubility test” of over 5000 µg/mL. The “production of 2-acetylnaphtho[2,3-b]furan-4,9-dione (Activated form 1) (in words)” value in data set [5] is reported as “rapidly produced”.

Turning to `CC(=O)c1cc2c(OC(=O)NC3CNC3)c3ccccc3c(OC(=O)NC3CNC3)c2o1.Cl.Cl` [Example 10], the “% Measurement value” value in data set [1] (setting [6]) is 59%; in data set [2], 58%; in data set [3] (setting [7]) it was 89%. Also, in “Solubility test”, the “Solubility in pH 2.0 buffer solution” value is on record as over 5.0 mg/mL.

As to `CC(=O)c1cc2c(OC(=O)NCCCNCC(=O)O)c3ccccc3c(OC(=O)NCCCNCC(=O)O)c2o1.Cl.Cl` [Example 40], the “% Measurement value” value in data set [1] (setting [6]) is reported as 86%; in data set [2] it was 50%; in data set [3] (setting [7]) it was 89%. The “Solubility in pH 2.0 buffer solution” value in “Solubility test” is reported as over 5.0 mg/mL.

As for `CC(=O)c1cc2c(OC(=O)NCCCCCN)c3ccccc3c(O)c2o1.Cl` [Example 72], the “% Measurement value” value in data set [1] (setting [6]) was determined as 42%; in data set [2] it was 38%; in data set [3] (setting [7]) it was 53%. For the same compound, the “Solubility in pH 2.0 buffer solution” value in “Solubility test” is 2.4 mg/mL.

Turning to `CC(=O)c1cc2c(OC(=O)NCCNCC(=O)O)c3ccccc3c(O)c2o1.Cl` [Example 71], the “% Measurement value” value is recorded as 68% in data set [1] (setting [6]), 70% in data set [2] and 61% in data set [3] (setting [7]). Further, the “Solubility in pH 2.0 buffer solution” value in the data set “Solubility test” came out at 0.1 mg/mL.

For the compound `CC(=O)c1cc2c(OC(=O)NCCCCCCCCN)c3ccccc3c(OC(=O)NCCCCCCCCN)c2o1.Cl.Cl` [Example 39], the “% Measurement value” value in data set [1] (setting [6]) was determined as 62%; in data set [2], 31%; in data set [3] (setting [7]), 80%. Moreover, the “Solubility in pH 2.0 buffer solution” value in the data set “Solubility test” is recorded as over 5.0 mg/mL.

For the compound `CC(=O)c1cc2c(OC(=O)NCCCCCCCN)c3ccccc3c(O)c2o1.Cl` [Example 73], the results for the “% Measurement value” value in data set [1] (setting [6]), in data set [2] and in data set [3] (setting [7]) were 63%, 66% and 88%, respectively. Also, the “Solubility in pH 2.0 buffer solution” value in “Solubility test” is recorded as 0.1 mg/mL.

For the compound `COC(=O)CNCCNC(=O)Oc1c2ccccc2c(OC(=O)NCCNCC(=O)OC)c2oc(C(C)=O)cc12.Cl.Cl` [Example 36], the “% Measurement value” value in data set [1] (setting [6]) is on record as 66%; in data set [2] it was 46%; in data set [3] (setting [7]) it was 73%. Moreover, the “Solubility in pH 2.0 buffer solution” value in the data set “Solubility test” is over 5.0 mg/mL.
